Legend:
[1] = Action to increase the urinary excretion of calcium (2), intravenous administration; type: in vivo, SD male rats; conditions: intravenous 22.4 nmol/kg; for Calcium in Urine: urine collected within 24 hours after administration; for Ratio of Calcium in Urine (to control): urine within 24 hours, test compound/control group
Protocol: The compound of the invention mentioned in Example 42, 61 or 66, or maxacalcitol in saline containing 0.1% Triton X 100/5.6% DMSO (22.4 nmol/kg) was subjected to an intravenous administration to SD male rats (7 weeks of age) Saline containing 0.1% Triton X 100/5.6% DMSO was administered to a control group. The calcium concentration in urine collected within 24 hours after the administration was measured and the urinary excretion of calcium ([calcium concentration in urine]×[amount of urine]) and the ratio of urinary excretion of calcium based on the control group ([calcium amount in urine in administration of the test compound]/[calcium amount in urine in the control group]) were calculated.

[2] = Metabolic rate in human liver microsome; type: in vitro ADME; conditions: pooled human liver microsome 1 mg/mL protein, NADPH-regenerating system, 37° C., 2-60 minutes, HPLC
Protocol: The compounds of the invention mentioned in Examples and maxacalcitol were compared with each other with respect to the metabolic rate in human liver microsome.
As to the pooled human liver microsome (HHM-0323), those manufactured by Tissue Transformation Technologies were used. A 0.25 M potassium phosphate buffer (pH 7.4) (200 μL), 5 μL of a 250 μM solution of each compound to be tested in DMSO, 50 μL of an NADPH-regenerating system (where 20 mg of β-NADP^+, 70 mg of glucose-6-phosphate, 40 units of glucose-6-phosphate dehydrogenase and 20 mg of magnesium chloride were dissolved in 1 mL of distilled water) and 220 μL of distilled water were added to a microtube and the mixture was subjected to a preincubation for 5 minutes at 37° C. Reaction was started by an addition of 25 μL of human liver microsome (final concentration of protein: 1 mg/mL). Incubation was performed for 2, 10, 30 or 60 minutes and the reaction was stopped by an addition of 500 μL of acetonitrile. After centrifugation at 13,000 rpm for 5 minutes, each test compound in the supernatant (25 μL) was measured by HPLC under the following conditions.
Inertsil ODS-3 (4.6×150 mm; GL Science) was used as a column. With regard to the mobile phase, a solution A (acetonitrile/0.1% aqueous solution of ammonium acetate=10/90) and a solution B (acetonitrile/0.1% aqueous solution of ammonium acetate=90/10) were used under the linear gradient conditions mentioned in Tables 5 to 7. The column temperature, the flow rate and the wavelength for detection were set at 40° C., 1.0 mL/min. and UV 250 or 270 nm, respectively.
The compound mentioned in Example 38 was analyzed under the condition shown in Table 6; the compounds mentioned in Examples 55, 56, 68, 69, 72 and 73 were under the condition shown in Table 7; and the other compounds were under the condition shown in Table 5.
The compounds described in Examples 40, 43 to 48, 50, 55, 56, 58, 60, 61, 63 and 65 to 73 were analyzed under the condition of UV 250 nm; and the other compounds were under the condition of UV 270 nm.
From the HPLC test results as above, the metabolic rate of the test compound was calculated.

[3] = test system: human acute myelogenous leukemia cell line HL-60; test: Ability to induce differentiation of HL-60 cells (oxygen radical production after phorbol ester, WST-1); type: cell-based; conditions: 72 hours incubation, then WST-1 and phorbol 12,13-didecanoate for 4 hours, absorbance at 450 nm
[4] = Action to increase calcium concentration in serum, percutaneous administration; type: in vivo, SD male rats; conditions: for Serum Calcium Concentration: percutaneous 33 μg/200 μL/kg/day once a day for 7 days, blood 24 hours after final administration
Protocol: The compound of the invention mentioned in Example 1 or maxacalcitol in ethanol containing 0.3% DMSO was repeatedly subjected to percutaneous administration (33 μg/200 μL/kg/day) once a day for 7 days onto the back of SD male rats (7 weeks of age). Ethanol containing 0.3% DMSO was administered to a control group. At 24 hours after the final administration, blood was collected and the calcium concentration in serum was measured.

[5] = Action to increase the urinary excretion of calcium (1), percutaneous administration; type: in vivo, SD male rats; conditions: percutaneous 10 μg/200 μL/kg/day once a day for 4 days; for Calcium in Urine within 24 hours: accumulated excretion 0 to 24 hours; for Calcium in Urine within 48 hours: accumulated excretion 0 to 48 hours; for Calcium in Urine within 72 hours: accumulated excretion 0 to 72 hours; for Calcium in Urine within 96 hours: accumulated excretion 0 to 96 hours
Protocol: The compound of the invention mentioned in Example 1, 36, 43, 47, 48, 55 or 70 or maxacalcitol in ethanol containing 0.5% DMSO was repeatedly subjected to a percutaneous administration (10 μg/200 μL/kg/day) once a day for 4 days onto the back of SD male rats (7 weeks of age). Ethanol containing 0.5% DMSO was administered to a control group. The calcium concentration in urine collected every 24 hours was measured and multiplied by the amount of urine to calculate the urinary excretion of calcium. The calcium excretion in urine shown in Table 3 indicates the accumulated calcium excretion from 0 to 24 hours, from 0 to 48 hours, from 0 to 72 hours, and from 0 to 96 hours.

SMILES | Calcium in Urine [1] | Ratio of Calcium in Urine (to control) [1] | Metabolic Rate [2] | EC50 ([3]; Homo sapiens) | Serum Calcium Concentration [4] | Calcium in Urine within 24 hours [5] | Calcium in Urine within 48 hours [5] | Calcium in Urine within 72 hours [5] | Calcium in Urine within 96 hours [5] | EC50 [3] | effect on the calcium concentration in serum (in words) ([4]; percutaneous 33 μg/200 μL/kg/day for 7 days)
C=C1/C(=C\C=C2/CCC[C@]3(C)[C@@H]([C@H](C)OCCC(C)(C)O)CC[C@@H]23)C[C@@H](O)C[C@@H]1O [Maxacalcitol, (1S,3R,20S)-20-(3-hydroxy-3-methylbutyloxy)-9,10-secopregna-5Z,7E,10(19)-trien-1,3-diol, reference compound] | 2.3 mg | 460% | 10 pmol/min/mg | 5.4 nM | 15.0 mg/dL | 2.6 mg | 4.5 mg | 8.5 mg | 13.9 mg |  | increased the calcium concentration in serum
C=C1/C(=C\C=C2/CCC[C@]3(C)[C@@H]([C@H](C)OC(=O)CCC(C)(C)O)CC[C@@H]23)C[C@@H](O)C[C@@H]1O [Compound of Example 1, (1S,3R,20S)-20-(4-hydroxy-4-methylpentanoyloxy)-9,10-secopregna-5Z,7E,10(19)-triene-1,3-diol] |  |  | 78 pmol/min/mg |  | 11.8 mg/dL | 0.8 mg | 1.4 mg | 2.3 mg | 3.8 mg | 1.5 nM | 

Continued, in another order:

Calcium in Urine [1] | Ratio of Calcium in Urine (to control) [1] | Metabolic Rate [2] | EC50 ([3]; Homo sapiens) | Serum Calcium Concentration [4] | Calcium in Urine within 24 hours [5] | Calcium in Urine within 48 hours [5] | Calcium in Urine within 72 hours [5] | Calcium in Urine within 96 hours [5] | EC50 [3] | SMILES | effect on the calcium concentration in serum (in words) ([4]; percutaneous 33 μg/200 μL/kg/day for 7 days)
0.5 mg | 100% | 116 pmol/min/mg |  |  |  |  |  |  |  | CCC(O)(CC)CCC(=O)O[C@@H](C)[C@H]1CC[C@H]2/C(=C/C=C3C[C@@H](O)C(C)[C@H](O)C3)CCC[C@]12C (stereo partly drawn) [Compound of Example 66, (1R,2β,3R,20S) -2-methyl-19-nor-20-[4-ethyl-4-hydroxyhexanoyloxy]-9,10-secopregna-5Z,7E-diene-1,3-diol] | 
0.8 mg | 160% | 34 pmol/min/mg |  |  |  |  |  |  | 1.3 nM | CCC(O)(/C=C/C(=O)O[C@@H](C)[C@H]1CC[C@H]2/C(=C/C=C3C[C@@H](O)C[C@H](O)C3)CCC[C@]12C)CC [Compound of Example 42, (1R,3R,20S)-19-nor-20-[(2E)-4-ethyl-4-hydroxyhex-2-enoyloxy]-9,10-secopregna-5Z,7E-diene-1,3-diol] | 
0.6 mg | 120% | 188 pmol/min/mg |  |  |  |  |  |  | 1.2 nM | CC1[C@H](O)CC(=C/C=C2\CCC[C@]3(C)[C@@H]([C@H](C)OC(=O)CCC(C)(O)C(F)(F)F)CC[C@@H]23)C[C@H]1O (stereo partly drawn) [Compound of Example 61, (1R,2β,3R,20S)-2-methyl-19-nor-20-(5,5,5-trifluoro-4-hydroxy-4-methylpentanoyloxy)-9,10-secopregna-5Z,7E-diene-1,3-diol] | 
